Results reported in patent publication US20230203043A1, “NOVEL IMIDAZOPYRAZINE DERIVATIVES” (Hoffmann-La Roche Inc., priority 2020, published 2023).
Structures can show the parent of a compound that is named as a salt.

Each compound was assayed on Acinetobacter baumannii ATCC17961 (assay: Antimicrobial susceptibility testing: 90% growth inhibitory concentration (IC90) determination in Iso-Sensitest broth, OD600 growth). Settings: Acinetobacter baumannii, ATCC17961, 16 h, read-out: A. baumannii ATCC 17961 IC90 (uM), strain ATCC 17961, OD600 growth over 16 h.
Assay type: cell-based
In short: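 Growth inhibition is calculated during the logarithmic phase from OD600 readings taken every 20 minutes across 16 h at 35±2° C. Bacteria at ~5×10^(5) CFU/ml face twofold dilution series (e.g. 50 to 0.097 μM final).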
Work on CC#CCn1cc(-c2cnc3c(Nc4ccc(C(=O)NCC(=O)NCCN)c(Cl)c4)nccn23)c(C(F)(F)F)n1 [Example 89, N-[2-(2-aminoethylamino)-2-oxoethyl]-4-[[3-[1-but-2-ynyl-3-(trifluoromethyl)pyrazol-4-yl]imidazo[1,2-a]pyrazin-8-yl]amino]-2-chlorobenzamide formate] yielded an IC90 of 0.573 µM. Compound C[C@@H](NC(=O)c1ccc(Nc2nccn3c(-c4c[nH]nc4C(F)(F)F)cnc23)cc1Cl)C(=O)N1CCC(N)CC1 [Example 90, N-[(2R)-1-(4-aminopiperidin-1-yl)-1-oxopropan-2-yl]-2-chloro-4-[[3-[3-(trifluoromethyl)-1H-pyrazol-4-yl]imidazo[1,2-a]pyrazin-8-yl]amino]benzamide formate] has an IC90 of 0.643 µM. With C[C@@H](NC(=O)c1ccc(Nc2nccn3c(-c4c[nH]nc4C(F)(F)F)cnc23)cc1Cl)C(=O)N1CCNCC1 [Example 91, 2-chloro-N-[(2R)-1-oxo-1-piperazin-1-ylpropan-2-yl]-4-[[3-[3-(trifluoromethyl)-1H-pyrazol-4-yl]imidazo[1,2-a]pyrazin-8-yl]amino]benzamide formate] the IC90 was 0.645 µM. C[C@@H](NC(=O)c1ccc(Nc2nccn3c(-c4c[nH]nc4C(F)(F)F)cnc23)cc1Cl)C(=O)NC1CC(N)C1 (stereo partly drawn) [Example 92, N-[(2R)-1-[(3-aminocyclobutyl)amino]-1-oxopropan-2-yl]-2-chloro-4-[[3-[3-(trifluoromethyl)-1H-pyrazol-4-yl]imidazo[1,2-a]pyrazin-8-yl]amino]benzamide formate] was tested, and the IC90 was 0.947 µM. C[C@@H](NC(=O)c1ccc(Nc2nccn3c(-c4c[nH]nc4C(F)(F)F)cnc23)cc1Cl)C(=O)N[C@@H]1CCNC1 [Example 93, 2-chloro-N-[(2R)-1-oxo-1-[[(3R)-pyrrolidin-3-yl]amino]propan-2-yl]-4-[[3-[3-(trifluoromethyl)-1H-pyrazol-4-yl]imidazo[1,2-a]pyrazin-8-yl]amino]benzamide formate] showed an IC90 of 1.02 µM. C[C@@H](NC(=O)c1ccc(Nc2nccn3c(-c4c[nH]nc4C(F)(F)F)cnc23)cc1Cl)C(=O)N1CC[C@H](N)C1 [Example 94, N-[(2R)-1-[(3S)-3-aminopyrrolidin-1-yl]-1-oxopropan-2-yl]-2-chloro-4-[[3-[3-(trifluoromethyl)-1H-pyrazol-4-yl]imidazo[1,2-a]pyrazin-8-yl]amino]benzamide formate] was tested, and the IC90 was 1.24 µM. For C[C@@H](NC(=O)c1ccc(Nc2nccn3c(-c4c[nH]nc4C(F)(F)F)cnc23)cc1Cl)C(=O)NCCN [Example 95, N-[(2R)-1-(2-aminoethylamino)-1-oxopropan-2-yl]-2-chloro-4-[[3-[3-(trifluoromethyl)-1H-pyrazol-4-yl]imidazo[1,2-a]pyrazin-8-yl]amino]benzamide formate], the IC90 was 1.53 µM. For C[C@@H](NC(=O)c1ccc(Nc2nccn3c(-c4c[nH]nc4C(F)(F)F)cnc23)cc1Cl)C(=O)N[C@H]1CCNC1 [Example 96, 2-chloro-N-[(2R)-1-oxo-1-[[(3S)-pyrrolidin-3-yl]amino]propan-2-yl]-4-[[3-[3-(trifluoromethyl)-1H-pyrazol-4-yl]imidazo[1,2-a]pyrazin-8-yl]amino]benzamide formate], the IC90 was 1.63 µM. For C[C@@H](NC(=O)c1ccc(Nc2nccn3c(-c4c[nH]nc4C(F)(F)F)cnc23)cc1Cl)C(=O)N1CC[C@@H](N)C1 [Example 97, N-[(2R)-1-[(3R)-3-aminopyrrolidin-1-yl]-1-oxopropan-2-yl]-2-chloro-4-[[3-[3-(trifluoromethyl)-1H-pyrazol-4-yl]imidazo[1,2-a]pyrazin-8-yl]amino]benzamide formate], the IC90 was 1.7 µM.

Same assay, conditions: Acinetobacter baumannii, ATCC17961, 16 h, strain ATCC 17961, OD600 growth over 16 h, read-out: A. baumannii ATCC 17961 IC90
With N#CCn1cc(-c2cnc3c(Nc4ccc(C(=O)NC56CC(N)(C5)C6)c(Cl)c4)nccn23)c(C(F)(F)F)n1 [Example 88, N-(3-amino-1-bicyclo[1.1.1]pentanyl)-2-chloro-4-[[3-[1-(cyanomethyl)-3-(trifluoromethyl)pyrazol-4-yl]imidazo[1,2-a]pyrazin-8-yl]amino]benzamide] the IC90 was 0.431 µM.
